A value given as a limit tells only on which side of the number the result lay.

In one data set the test system is proMMP-9. The data set is described as follows: proMMP-9 secretion by J774 macrophages challenged with heat inactivated E. coli. The format is cell-based, murine. As for the experimental part: Macrophage cells were pre-conditioned for 30 min. with varying concentrations of PEG400 (0.31-10% w/w) and then challenged with heat inactivated E. coli bacteria. Next, cells were further incubated overnight. The supernatant of cells was analyzed for proMMP-9 according to the manufacturer's indications (R&D systems, Abingdon, UK).

Data set [1] has as its system VEGF. The data set is described as follows: VEGF expression by fibroblasts (ELISA). To be noted: overnight. The format is cell-based, murine. Background: ELISA stands for enzyme-linked immunosorbent assay.
Data set [2] has as its system IL-6. The data set can be described thus: IL-6 expression by J774 macrophages after heat inactivated E. coli stimulation. The format is cell-based, murine. The conditions noted are these: J774 cells, with vs without PEG. The procedure: The cells were cultured with or without PEG (PEG600 diacid) The expression of IL-6 is lowered by about 30% when PEG is added.
Another data set deals with HaCat keratinocytes. The data set is described as follows: Toxicity of PEG on cultivated cells (tetrazolium cell survival). It is filed as cell-based. The procedure:
(§1) Cells were grown in DMEM (3T3 fibroblasts and HaCat keratinocytes) or in RPMI1640 (J774 macrophages). Both media were supplemented with heat inactivated 10% Fetal Calf Serum (Sigma), 2 mM L-Glutamine (Sigma) and antibiotics (Sigma). Cells were seeded subconfluent in 96 well plates and contacted for about 16 hours with PEG test compounds which were dissolved in growth media (expressed as w/w end concentrations).
(§2) Cell survival was assayed by the conversion of soluble tetrazolium salt into an insoluble and pink colored formazan (absorption measured at 570 nm).
(§3) Cells were incubated overnight with varying concentrations of PEG 400 (0.31-10% w/w). From 5% onwards, PEG has a cytotoxic effect on in vitro cultivated cells, especially on keratinocytes (FIG. 1A) and on macrophages (FIG. 1B), and to a lesser extent on fibroblasts (FIG. 1C).

A further data set relates to 3T3 fibroblasts. Described as above. The format is cell-based, murine. The procedure:
as §1, §2, §3

The subject of a further data set is J774 macrophages. Described as above. It is filed as cell-based, murine. As for the experimental part: as §1, §2, §3
For data set [3], the system named is IL-6. The data set is described as follows: IL-6 expression in 3T3 cells incubated with hydrogel. It is filed as cell-based, murine. The conditions noted are these: Na+-Ca++ alginate gel with 2.5% PEG400 vs gel without PEG400, 16 h. The procedure: (§4) J774 macrophages were pre-conditioned for 30 min. with the gels and were then challenged with 100 ng/ml LPS. 3T3 cells were not challenged with bacteria. Next, the murine macrophage J774 and murine fibroblast 3T3 cells were incubated with the gels for 16 h at 37° C., 5% CO2. Hereafter, the medium was collected, centrifuged at 14,000 rpm during 20 min to remove particulate material and assayed for the indicated secreted proteins. Results are the mean of two independent experiments and are expressed as percentages of the control experiment.
(§5) A hydrogel was made by dissolving 2 g Kelset (Na^+—Ca^++ alginate) and 5 g PEG400 in a final volume of 100 ml growth medium [DMEM high glucose, 10% FCS, 4 mM L-Glutamine, antibiotics]. This mixture was further diluted with an additional 100 ml of growth medium to lower the viscosity of the solutions. The final concentration of PEG400 was 2.5%.
(§6) A similar solution without PEG400 was used as control.

Data set [4] relates to VEGF. The data set is described as follows: VEGF expression in 3T3 cells incubated with hydrogel. To be noted: Na+-Ca++ alginate gel with 2.5% PEG400 vs gel without PEG400, 16 h. The format is cell-based, murine. As for the experimental part: as §4, §5, §6
For data set [5], the system named is IL-6. The data set is described as follows: IL-6 secretion by LPS-challenged J774 macrophages incubated with hydrogels. It is filed as cell-based, murine. As for the experimental part: as §4, §5
(§7) A hydrogel was made by dissolving 1 g Carbopol (polyacrylate), 5 g PEG400, 2.1 g Arginine and 3 g PCL (cetearyl octanoate) in a total volume of 100 ml growth medium [DMEM(high glucose), 10% FCS, 4 mM L-Glutamine, antibiotics]. This mixture was further diluted with an additional 100 ml of growth medium to lower the viscosity of the solutions. Cultures of murine macrophages J774 were used. The final concentration of PEG400 in contact with the cells was 2.5%. A similar solution without PEG400 was used as control.
(§8) A hydrogel was made by dissolving 3 g CMC ([…]), and 5 g PEG400 in a final volume of 100 ml growth medium [DMEM(high glucose), 10% FCS/4 mM L-Glutamine, antibiotics]. This mixture was further diluted with an additional 100 ml of growth medium to lower the viscosity of the solutions. Cultures of murine macrophages J774 were used. The final concentration of PEG400 was 2.5%. A similar solution without PEG400 was used as control.

Another data set deals with pro-MMP9. The data set can be described thus: pro-MMP9 secretion by LPS-challenged J774 macrophages incubated with hydrogels. It is filed as cell-based, murine. The procedure: as §4, §5, §7, §8
Data set [6] concerns VEGF. The data set is described as follows: VEGF expression by vascular endothelial cells (SVEC). It is filed as cell-based. The text has this: (§9) The expression of VEGF upon administration of PEG and/or other humectants was investigated on vascular endothelial cells (SVEC) and on fibroblast cells (3T3). The beneficial role of VEGF expression in the healing of ischemic wounds is described in Corrall et al. (1999) Arch. Surg. 134, 200-205.

Data set [7] concerns VEGF. The data set is described as follows: VEGF expression by fibroblast cells (3T3), comparison of humectants. The conditions noted are these: 3T3 fibroblast cells. It is filed as cell-based, murine.
From the text: as §9

The next data set concerns Collagen type III. The data set can be described thus: Collagen III expression by 3T3 fibroblast cells. The format is cell-based, murine. To be noted: 3T3 cells. The source says:
This increase of collagen III expression was significant compared to control.

The mark [8] stands for this setting: overnight incubation, PEG 400 0.31-10% w/w.
[9] abbreviates: J774, alginate gel, 2.5% PEG400, 100 ng/ml LPS.
Setting [10] is: J774, carboxymethylcellulose gel, 2.5% PEG400, 100 ng/ml LPS.
Where [11] appears, read: J774, polyacrylate (Carbopol) gel, 2.5% PEG400, LPS.

With PEG 600 diacid, the pro-MMP9 expression result in the data set with proMMP-9 (J774 cells challenged with heat inactivated E. coli after 30 min pre-incubation) is recorded as “lowered”. Further, the VEGF expression result with VEGF [1] (3T3 fibroblasts, increasing amounts 0.078-0.625% w/w) is “influenced”. Moreover, the “lowering of IL-6 expression” value with IL-6 [2] is reported as “about 30%”.

With Polyethylene glycol [PEG 400], the “effect on cell survival” value is recorded as “no detrimental effect” in the data set on HaCat keratinocytes (keratinocytes, concentrations below 5%); “no detrimental effect” in the data set with 3T3 fibroblasts (concentrations below 5%); “no detrimental effect” in the data set on J774 macrophages (concentrations below 5%). Moreover, the “concentration from which PEG has a cytotoxic effect” value with HaCat keratinocytes (keratinocytes, overnight incubation, PEG 400 0.31-10% w/w) is at least 5%; in the data set with 3T3 fibroblasts (setting [8]), at least 5%; in the data set with J774 macrophages (setting [8]), at least 5%. The “concentration from which PEG400 is cytotoxic (summary statement)” value with HaCat keratinocytes (summary of Example 1, cell type not specified) is ≥ 5 % (w/w). Also, the “secretion of proMMP9” value with proMMP-9 (J774, PEG 400 concentration from about up to roughly 1% (w/w), 30 min pre-conditioning, heat inactivated E. coli, overnight) is on record as “significantly reduced”. Besides, the “PEG400 concentration of maximum VEGF expression” value with VEGF [1] (fibroblasts, 0.31-10% w/w tested) amounted to 5%. The VEGF expression entry in the data set on VEGF [1] (fibroblasts, PEG400 concentrations between 2% and 10%) is reported as “increases”; in the data set on VEGF [4], “slightly increased”. In addition, the IL-6 expression entry in the data set with IL-6 [3] was “decreased”. In addition, the “secretion of IL-6” value with IL-6 [5] (setting [9]) is reported as “reduced”. The results for the “expression of IL-6” value in the data set with IL-6 [5] (setting [10]) and in the data set with IL-6 [5] (setting [11]) were “clearly reduced” and “reduced”, respectively. The “secretion of pro-MMP9” value in the data set on pro-MMP9 (setting [9]) is listed as “reduced”. The “expression of pro-MMP9” value was “less reduced” in the data set with pro-MMP9 (setting [10]) and “reduced” in the data set with pro-MMP9 (setting [11]). For the same substance, the “VEGF expression compared with 4% propylene glycol and 4% glycerol” value with VEGF [6] and in the data set on VEGF [7] was “highest expression” throughout. Further, in the data set with Collagen type III, the “collagen III expression compared with 4% propylene glycol and 4% glycerol” value is “highest expression”. Also, the “increase of collagen III expression compared to control” value in the data set with Collagen type III (4%) was “significant”.

The values are drawn from patent US20090317474A1, “USE OF POLYETHYLENE GLYCOL IN INFLAMMATION RELATED TOPICAL DISORDERS OR DISEASES AND WOUND HEALING” (Flen Pharma N.V., priority 2006, published 2009).
